# Source: patent publication US20150111750A1, “Substituted N-(tetrazol-5-yl)- and N-(triazol-5-yl)hetarylcarboxamide compounds and their use as herbicides” (BASF SE, priority 2012, published 2015)
# What was measured:
# Amaranthus retroflexus = assay: Greenhouse post-emergence treatment of Amaranthus retroflexus; assay type: in vivo; settings: application rate 1000 g/ha, scale 0 (no damage) to 100 (complete destruction)
# From the text: (§1) The seeds of the test plants were sown separately for each species. For the post-emergence treatment, the test plants were first grown to a height of 3 to 15 cm, depending on the plant habit, and only then treated with the active ingredients which had been suspended or emulsified in water. For this purpose, the test plants were either sown directly and grown in the same containers, or they were first grown separately as seedlings and transplanted into the test containers a few days prior to treatment. Depending on the species, the plants were kept at 10-25° C. or 20-35° C. The test period extended over 2 to 4 weeks. During this time, the plants were tended, and their response to the individual treatments was evaluated. Evaluation was carried out using a scale from 0 to 100. 100 means no emergence of the plants, or complete destruction of at least the aerial moieties, and 0 means no damage, or normal course of growth. A good herbicidal activity is given at values of at least 70 and a very good herbicidal activity is given at values of at least 85. The plants used in the greenhouse experiments belonged to the following species: [table]
# Echinochloa crus-galli = assay: Greenhouse post-emergence treatment of Echinochloa crus-galli; assay type: in vivo; settings: application rate 1000 g/ha, scale 0 (no damage) to 100 (complete destruction)
# From the text: as §1
smiles,measurement,setting,value
"Cn1ncnc1NC(=O)c1cnc(Cl)cc1Cl [I.5-1, 4,6-dichloro-N-(2-methyl-1,2,4-triazol-3-yl)pyridine-3-carboxamide]",damage [%],Amaranthus retroflexus,65%
same,damage [%],Echinochloa crus-galli,30%
